Results: US7652037B2, “Methods of lowering lipid levels in a mammal” (City Of Hope, priority 2003, dated 2010)

How the values were obtained:
[1] = tested on: rats with diabetic nephropathy; settings: rats with diabetic nephropathy (Forbes et al.); cited from earlier work
[2] = tested on: diabetic and hyperlipidemic rats; settings: diabetic and hyperlipidemic rats (Degenhardt et al.; Alderson et al.); cited from earlier work
Human LDL [3] = assay: Cu++-mediated LDL oxidation, TBARS (Example 16); settings: 250 μM compound, followed for 5 hours; control lag phase about 2 hours
Experimental: Human LDL was isolated from plasma of healthy donors by single vertical spin centrifugation (see Chung et al., Methods Enzymol. 128:181-209, 1986) and used within 24-48 hours of preparation. LDL (50 μg/mL) was incubated at 37° C. in 50 mM chelex-treated phosphate buffer, pH 7.4, alone or in the presence of 5 μM CuCl2 or 5 μM CuCl2 plus various concentrations of the LR compounds. After 5 hours of incubation, aliquots from each reaction mixture were removed for measurement of thiobarbituric acid-reacting substances (TBARS) as described in Satoh, Clin. Chim. Acta 90:37-43, 1978. Briefly, 250 μL of 20% trichloroacetic acid was added to 500 μL of sample aliquot, followed by 750 μL of 1% […]. The samples then were vortexed and incubated in a boiling water bath for 10 minutes. Upon cooling, the samples were centrifuged for 5 minutes at 5000 rpm. Absorbance of the supernatant was taken at 532 nm, and expressed as MDA equivalents using 1,1,3,3-tetramethoxypropane as standards. For fatty acid oxidation studies, linoleic acid (5#mM) was incubated alone or in the presence of 1 mM LR compound in […] phosphate buffer, pH 7.4, for 7 days at 37° C. Aliquots from each reaction mixture were withdrawn periodically for measurement of TBARS as described above.
Results are shown in FIG. 23A, where values are provided as means±SD of two independent experiments (n=4 for each treatment). In separate experiments, the time course for the oxidative modification fo LDL by Cu^++ in the presence of 250 μM compound was followed for 5 hours and aliquots for each time interval were assayed for TBARS. Values in FIG. 23B are means±SD of two independent experiments (n=4 per treatment).

Human LDL [4] = assay: Cu++-mediated oxidation of LDL, TBARS (Example 9); settings: 5 μM CuCl2, 10-250 μM compound, 5 hours, 37° C.
Experimental: The ability of the LR compounds to inhibit lipid peroxidation was tested using Cu^++-mediated lipid oxidation, a common in vitro model for studies on lipoxidative modifications of proteins. The effects of the LR compounds on lipid peroxidation were studied using Cu^++-mediated oxidation of LDL. Human LDL (50 μg of protein/mL) was incubated at 37° C. in chelex-treated PBS buffer alone or in the presence of 5 μM CuCl2 or 5 μM CuCl2 plus various concentrations of the inhibitor compounds (10-250 μM). After 5 hours of incubation, the amount of thiobarbituric acid reactive substances (expressed as malondialdehyde (MDA) equivalents) generated in the reaction mixture was calculated according to methods described by Dillon et al., Life Sci. #72:1583-1594, 2003. Briefly, aliquots from each sample were precipitated with 20% trichloroacetic acid, centrifuged and an equal volume of 1% thiobarbituric acid was added to the supernatant. The samples then were heated to 95° C. for 10 minutes, and upon cooling, the absorbance was read at 532 nm. Hydrolyzed tetraethoxypropane was used as a standard for the MDA equivalent calculation.

[5] = Superoxide production, methylglyoxal with N-α-acetyl-lysine, WST-1 assay
Experimental: The superoxide radical scavenging activity of the compounds was evaluated using the WST-1 method described in Ukeda et al., Anal. Sci. 18:1151-1154, 2002. Briefly, methylglyoxal, was incubated with or without N-α-acetyl-lysine in 0.05 M chelex-treated sodium phosphate buffer, pH 7.4, in the presence of various concentrations of the inhibitor compounds. The production of superoxide was monitored spectrophotometrically at 438 nm, and compared with superoxide dismutase and Tiron, two known superoxide radical scavengers.

[6] = Inhibition of copper-catalyzed oxidation of ascorbic acid (Cu2+ chelating activity); settings: 500 nmol/L CuCl2, 500 μmol/L ascorbic acid, phosphate buffer pH 7.4, 60 minutes; read-out: IC50, concentration that inhibited the rate of AA oxidation by 50%
Experimental: In vitro measurement of the kinetics of inhibition of copper-catalyzed oxidation of ascorbic acid was performed according to the methods of Price et al., J. Biol. Chem. 276:48967-48972, 2001. Briefly, CuCl2 and various concentrations of inhibitor compounds were pre-incubated in chelex-treated 20 mmol/L phosphate buffer, pH 7.4, for 5 minutes. Ascorbic acid then was added (50 μL of 10 mmol/L in water) to initiate the reaction (1 mL total reaction volume). The final concentrations of CuCl2 and ascorbic acid in the reaction were 500 nmol/L and 500 μmol/L, respectively. Aliquots (135 μL) were removed at 0 and 60 minutes and transferred to autoinjector vials containing 15 μL of 10 mmol/l DTPA. Samples were analyzed by reversed phase HPLC on an XTerra™ RP18 column (250 mm×4.6 mm, 5 μm) with an XTerra™ RP18 5 μm guard column using a Waters® 2690 Separator Module equipped with auto-injector and Millenium® 32 software. Solvents and gradient were all used as described in Dillon et al., Life Sci. 72:1583-1594, 2003. The absorbance of ascorbic acid was measured at 244 nm and the peak area was obtained to estimate the percent of ascorbic acid remaining versus time. For each inhibitor compound, the concentration that inhibited the rate of AA oxidation by 50% (IC50), was calculated with respect to the control using Prism™ software.

Q: For `CCOC(=O)[C@H](CCc1ccccc1)N[C@@H](C)C(=O)N1[C@H](C(=O)O)C[C@@H]2CCC[C@@H]21` [ramipril], which “increase in CML-AGE and nitrotyrosine staining” value [1] is on record?
A: The value was “attenuated”.

Q: Which lipid-lowering effects [2] does the source give for `Cc1ncc(CO)c(CN)c1O` [PM, pyridoxamine, reference compound] here?
A: The lipid-lowering effects was “lipid-lowering effects”.

Q: What about the “time course of Cu++-mediated oxidation of LDL” value (Human LDL [3]) of the same compound?
A: Its value is “no effect”.

Q: What about the “inhibition of Cu++-mediated LDL oxidation (lipid peroxidation)” value (Human LDL [4]) of the same compound?
A: The value was “no effect”.

Q: And the “inhibition of Cu++-mediated LDL oxidation (lipid peroxidation)” value (Human LDL [4]; listed as pyridoxamine)?
A: The value was “minimal effects”.

Q: What does the source list for `N=C(N)NN` [AG, aminoguanidine, reference compound]?
A: increase in CML-AGE and nitrotyrosine staining [1]: attenuated; lipid-lowering effects [2]: lipid-lowering effects; effect on superoxide production [5]: little or no effect; IC50 [6]: 2750 µM
